The source of these data is patent US5362634A, “Process for producing A83543 compounds” (DowElanco, priority 1991, dated 1994).

Molecules are shown by their SMILES. In brackets after ≈: the same amount, converted by molar mass. Like-named read-outs stand apart in the source and are kept apart here.

Series [1] has as its system neonate CBW (cotton bollworm) larvae. Kind of series: Percent control of neonate CBW larvae by A83543 components, topical pipet method. It is filed as in vivo, Heliothis zea. The settings on record: for mortality at 0.5 ppm / mortality at 1 ppm / mortality at 5 ppm / mortality at 10 ppm: 24 h, read-out: Percent Control. The protocol:
Each test compound was formulated by dissolving the compound in an acetone/alcohol (1:1) mixture containing 23 g of "Toximul R" (sulfonate/nonionic emulsifier blend) and 13 g of "Toximul S" (sulfonate/nonionic emulsifier blend) per liter. These mixtures were then diluted with water to give the indicated concentrations.
Additional insects were evaluated using similar formulations and evaluation procedures, with the exceptions noted.
After standard exposure periods, percent mortality was evaluated. The following abbreviations are used:
^1 Treatments with the same letter in parentheses are similar at the
^2 Topical pipet method with 20 larve/replicate and 4 replicates; one
day between treatment and observation.

The subject of series [2] is first instar yellow fever mosquito larvae. The series is described as follows: In vitro mosquito larvicide test, first instar. Conditions: Aedes aegypti, 24 h, lowest concentration with 100% inhibition after 24 hr, microtiter plates; read-out: Minimal Inhibitory Concentration. The source says:
(§1) The A83543 components were active against yellow fever mosquito (Aedes aegypti) larvae in standard in vitro mosquito larvicide tests.

Series [3] deals with fourth instar yellow fever mosquito larvae. Kind of series: whole plant or invertebrate. The settings on record: 24 hr; for mortality at 0.312 ppm: Aedes aegypti, read-out: Percent Control. More on the design: species or system Aedes aegypti.
From the text: as §1
^a At 24 hr when treated at 0.312 ppm

The test system of series [4] is blow fly larvae (LBF). The series is described as follows: Guinea pig systemic test, blow fly larvae. It is filed as in vivo. As for the experimental part: (§2) Adult guinea pigs are used in this test system. The compounds to be tested are dissolved in aqueous polyvinyl pyrrolidone or in polyethylene glycol 200, and an appropriate amount of the solution is administered either orally or by intraperitoneal injection.
(§3) Blood is drawn from the guinea pigs at 30 minutes except as noted, and the samples of blood are centrifuged. Dental wicks are saturated with the blood serum, and then exposed in Petri dishes to adult stable flies; blow fly larvae are exposed in test tubes. After 24 and 48 hours, the insects are examined, and the number of dead are counted. The results of the tests are recorded as the percent of the insects which are killed.

Series [5] deals with blow fly larvae (LBF). The series is described as follows: In vitro efficacy, exposure of LBF to chemically added serum samples. The source says: (§4) ^1 Percent insect mortality following 24 to 48 hrs. in vitro exposure
(§5) to chemically added serum samples

Series [6] deals with adult stable fly (ASF). Kind of series: In vitro efficacy, exposure of ASF to chemically added serum samples. Conditions: Stomoxys calcitrans, read-out: Percent insect mortality.
From the text: as §4, §5

Series [7] concerns adult stable fly (ASF). The series is described as follows: Guinea pig systemic test, adult stable fly. It counts as in vivo, Stomoxys calcitrans. The protocol: as §2, §3
The subject of the next series is SAW (Southern armyworm). Kind of series: LC50 against SAW, foliar. It is filed as in vivo. Conditions: Spodoptera eridania, spray concentration. From the text:
(§6) ^a Corn rootworm rate in soil by wt.; all others as spray

The test system of the next series is Grain Aphid. The series is described as follows: LC50 against Grain Aphid. It is filed as in vivo. The settings on record: Sitobion avenae; spray concentration.
From the text: as §6

Series [8] relates to CRW (Southern corn rootworm). The series is described as follows: LC50 against CRW. It counts as in vivo, Diabrotica undecimpunctata howardi. Conditions: rate in soil by wt.
From the text: as §6

A further series has as its system CBW (cotton bollworm). Kind of series: LC50 against CBW, contact. It is filed as in vivo, Heliothis zea. Conditions: spray concentration.
From the text: as §6

The subject of the next series is Spodoptera eridania. Kind of series: Outdoor pot tests against Southern armyworm. It is filed as in vivo. From the text:
Table XV compares the effectiveness and persistence of A83543A treatment with that of methomyl in outdoor pot tests against Southern armyworm.

Series [9] has as its system SM (twospotted spider mite). The series is described as follows: LC50 against SM. Conditions: Tetranychus urticae; spray concentration. It counts as in vivo.
From the text: as §6

Where [10] appears, read: 0.5 ppm, topical pipet, one day.

On to `CC[C@H]1CCC[C@H](O[C@H]2CC[C@H](NC)[C@@H](C)O2)[C@@H](C)C(=O)C2=C[C@@H]3[C@@H](C=C[C@@H]4C[C@@H](O[C@@H]5O[C@@H](C)[C@H](OC)[C@@H](OC)[C@H]5OC)C[C@@H]34)[C@@H]2CC(=O)O1` [A83543B], for which the mortality at 0.5 ppm in [1] (setting [10]) worked out at 35%. Further, in [1] (1 ppm, topical pipet, one day), the mortality at 1 ppm amounted to 80%. The mortality at 5 ppm in series [1] (5 ppm, topical pipet, one day) turned out to be 100%. In addition, the mortality at 10 ppm in series [1] (10 ppm, topical pipet, one day) stood at 100%. In addition, in [2], the MIC is 0.016 µg/mL (≈ 0.0223 µM). Moreover, the mortality at 0.312 ppm in series [3] was found to be 60%.

Take `CC[C@H]1CCC[C@H](O[C@H]2CC[C@H](N)[C@@H](C)O2)[C@@H](C)C(=O)C2=C[C@@H]3[C@@H](C=C[C@@H]4C[C@@H](O[C@@H]5O[C@@H](C)[C@H](OC)[C@@H](OC)[C@H]5OC)C[C@@H]34)[C@@H]2CC(=O)O1` [A83543C]: in series [1] (setting [10]), the mortality at 0.5 ppm worked out at 5%. Besides, the mortality at 1 ppm in series [1] (1 ppm, topical pipet, one day) stood at 85%. Also, in series [1] (5 ppm, topical pipet, one day), the mortality at 5 ppm worked out at 93%. Further, in [1] (10 ppm, topical pipet, one day), the mortality at 10 ppm came to 100%. In addition, in series [2], the MIC is 0.031 µg/mL (≈ 0.044 µM). The mortality at 0.312 ppm in series [3] is 60%.

As for `CC[C@H]1CCC[C@H](O[C@H]2CC[C@H](N(C)C)[C@@H](C)O2)[C@@H](C)C(=O)C2=C[C@@H]3[C@@H](C=C(C)[C@@H]4C[C@@H](O[C@@H]5O[C@@H](C)[C@H](OC)[C@@H](OC)[C@H]5OC)C[C@@H]34)[C@@H]2CC(=O)O1` [A83543D], in [1] (topical), the mortality at 0.5 ppm stood at 58%. Besides, the mortality at 1 ppm in series [1] (topical) was 90%. The mortality at 5 ppm in series [1] (topical) was determined as 100%; in the series with adult stable fly (ASF) [6] (24 hr), 20%; with adult stable fly (ASF) [6] (48 hr), 90%. Further, the mortality at 10 ppm in [1] (topical) came to 100%; in the series with adult stable fly (ASF) [6] (24 hr), 50%; in the series with adult stable fly (ASF) [6] (48 hr), 100%. The “% Activity LBF” value in the series with blow fly larvae (LBF) [4] (10 mg/kg IP, bled 30 min) amounted to 0%; with blow fly larvae (LBF) [4] (10 mg/kg IP, bled 5 hr) it was 0%; in the series with blow fly larvae (LBF) [4] (10 mg/kg IP, bled 24 hr), 0%; with blow fly larvae (LBF) [4] (30 mg/kg IP, bled 30 min), 0%; with blow fly larvae (LBF) [4] (30 mg/kg IP, bled 5 hr) it was 0%; in the series on blow fly larvae (LBF) [4] (30 mg/kg IP, bled 24 hr), 0%. The “% Activity LBF” value with blow fly larvae (LBF) [4] (50 mg/kg IP, bled 30 min) was 75%; in the series on blow fly larvae (LBF) [4] (50 mg/kg IP, bled 5 hr), 0%; with blow fly larvae (LBF) [4] (50 mg/kg IP, bled 24 hr), 25%. For the same compound, the Percent insect mortality is listed as 25% in the series with blow fly larvae (LBF) [5] (0.312 ppm, 24 hr); 25% in the series with blow fly larvae (LBF) [5] (0.312 ppm, 48 hr); 50% with blow fly larvae (LBF) [5] (0.625 ppm, 24 hr); 75% in the series with blow fly larvae (LBF) [5] (0.625 ppm, 48 hr); 80% in the series on blow fly larvae (LBF) [5] (1.25 ppm, 24 hr); 90% with blow fly larvae (LBF) [5] (1.25 ppm, 48 hr). For the same compound, the Percent insect mortality with blow fly larvae (LBF) [5] (2.5 ppm, 24 hr) turned out to be 90%; in the series with blow fly larvae (LBF) [5] (2.5 ppm, 48 hr) it was 100%; in the series with blow fly larvae (LBF) [5] (5 ppm, 24 hr), 90%; in the series on blow fly larvae (LBF) [5] (5 ppm, 48 hr), 100%; in the series with blow fly larvae (LBF) [5] (10 ppm, 24 hr), 100%; in the series with blow fly larvae (LBF) [5] (10 ppm, 48 hr) it was 100%. Besides, the mortality at 0.312 ppm with adult stable fly (ASF) [6] (24 hr) was found to be 0%; in the series on adult stable fly (ASF) [6] (48 hr) it was 0%; in series [3], 30%. Moreover, the mortality at 0.625 ppm in the series on adult stable fly (ASF) [6] (24 hr) was found to be 0%; with adult stable fly (ASF) [6] (48 hr), 60%. In addition, the mortality at 1.25 ppm was 10% with adult stable fly (ASF) [6] (24 hr) and 90% with adult stable fly (ASF) [6] (48 hr). The mortality at 2.5 ppm in the series with adult stable fly (ASF) [6] (24 hr) amounted to 20%; with adult stable fly (ASF) [6] (48 hr) it was 100%. Moreover, the “% Activity ASF” value with adult stable fly (ASF) [7] (10 mg/kg IP, bled 30 min) was 0%; with adult stable fly (ASF) [7] (10 mg/kg IP, bled 5 hr) it was 0%; with adult stable fly (ASF) [7] (10 mg/kg IP, bled 24 hr), 10%; with adult stable fly (ASF) [7] (30 mg/kg IP, bled 30 min) it was 0%; in the series on adult stable fly (ASF) [7] (30 mg/kg IP, bled 5 hr), 0%; in the series on adult stable fly (ASF) [7] (30 mg/kg IP, bled 24 hr) it was 0%. Moreover, the “% Activity ASF” value with adult stable fly (ASF) [7] (50 mg/kg IP, bled 30 min) was 0%; in the series on adult stable fly (ASF) [7] (50 mg/kg IP, bled 5 hr), 0%; in the series with adult stable fly (ASF) [7] (50 mg/kg IP, bled 24 hr), 0%.

Regarding `CO[C@@H]1[C@@H](OC)[C@H](C)O[C@@H](O[C@H]2C[C@H]3[C@@H]4C=C5C(=O)[C@H](C)[C@@H](O[C@H]6CC[C@H](N(C)C)[C@@H](C)O6)CCC[C@H](C)OC(=O)C[C@H]5[C@@H]4C=C[C@@H]3C2)[C@@H]1OC` [A83543E], in series [1] (topical), the mortality at 0.5 ppm came out at 28%, the mortality at 1 ppm is 58%, the mortality at 5 ppm worked out at 100% and the mortality at 10 ppm was found to be 100%. Besides, the mortality at 0.312 ppm in series [3] was 80%.

Take `CC[C@H]1CCC[C@H](O[C@H]2CC[C@H](N(C)C)[C@@H](C)O2)CC(=O)C2=C[C@@H]3[C@@H](C=C[C@@H]4C[C@@H](O[C@@H]5O[C@@H](C)[C@H](OC)[C@@H](OC)[C@H]5OC)C[C@@H]34)[C@@H]2CC(=O)O1` [A83543F]: the mortality at 0.5 ppm in [1] (setting [10]) stood at 0%. The mortality at 1 ppm in [1] (1 ppm, topical pipet, one day) was 0%. Further, the mortality at 5 ppm in series [1] (5 ppm, topical pipet, one day) was 0%. In [1] (10 ppm, topical pipet, one day), the mortality at 10 ppm worked out at 95%. For the same compound, in series [3], the mortality at 0.312 ppm turned out to be 0%.

As to `CC[C@H]1CCC[C@H](O[C@H]2CC[C@@H](N(C)C)[C@@H](C)O2)[C@@H](C)C(=O)C2=C[C@@H]3[C@@H](C=C[C@@H]4C[C@@H](O[C@@H]5O[C@@H](C)[C@H](OC)[C@@H](OC)[C@H]5OC)C[C@@H]34)[C@@H]2CC(=O)O1` [A83543G], the “Percent Control” value in [1] (0.5 ppm, topical pipet, one day, 1440 min) stood at 0%; in series [1] (1 ppm, topical pipet, one day), 0%; in series [1] (5 ppm, topical pipet, one day, 1440 min), 20%; in [1] (10 ppm, topical pipet, one day, 1440 min), 80%; in series [3] (0.312 ppm) it was 0%.

Consider `CNC(=O)ON=C(C)SC` [methomyl, reference compound], for which the LC50 in the series with SAW (Southern armyworm) worked out at 11.4 µg/mL (≈ 70.3 µM); with Grain Aphid it was 5.4 µg/mL (≈ 33.3 µM); in [8], 6 µg/mL (≈ 37 µM); in the series on CBW (cotton bollworm), 14.5 µg/mL (≈ 89.4 µM); in series [9], 71.4 µg/mL (≈ 440 µM). Further, the mortality at 63 ppm is 100% in the series with Spodoptera eridania (24 h, 1 day after treatment); 20% in the series on Spodoptera eridania (120 h, 5 days after treatment); 15% in the series with Spodoptera eridania (168 h, 7 days after treatment); 0% in the series with Spodoptera eridania (336 h, 14 days after treatment). Moreover, the mortality at 125 ppm in the series on Spodoptera eridania (24 h, 1 day after treatment) is 100%; with Spodoptera eridania (120 h, 5 days after treatment) it was 35%; with Spodoptera eridania (168 h, 7 days after treatment), 40%; with Spodoptera eridania (336 h, 14 days after treatment), 20%. Also, the mortality at 250 ppm in the series on Spodoptera eridania (24 h, 1 day after treatment) was determined as 100%; with Spodoptera eridania (120 h, 5 days after treatment), 85%; in the series with Spodoptera eridania (168 h, 7 days after treatment), 45%; with Spodoptera eridania (336 h, 14 days after treatment), 40%. Besides, the mortality at 500 ppm in the series with Spodoptera eridania (24 h, 1 day after treatment) was found to be 100%; with Spodoptera eridania (120 h, 5 days after treatment), 90%; in the series with Spodoptera eridania (168 h, 7 days after treatment), 85%; in the series with Spodoptera eridania (336 h, 14 days after treatment) it was 60%.
